Where two headings read alike, the source gives them in different places. Bounds are passed on as bounds.

A short description of data set [1]: Nintedanib (BIBF1120-BS and metabolite BIBF1202-ZW) plasma pharmacokinetics (LC-MS/MS). Particulars: for Cmax / Tmax / AUC(0-t): human, plasma, oral; for Cmax / Tmax / AUC(0-t) / Mean Cmax / Mean AUC0-last / Mean Tmax: nintedanib species in plasma; for AUC(0-t): read-out: Mean AUC0-last; for Mean plasma concentration at steady state (day 29) compared with day 1: level 2; for Pharmacokinetic interaction: increase in plasma concentrations: nintedanib and letrozole co-administered, three- for nintedanib, twofold for letrozole (respective). Format: in vivo, human.

Data set [2] deals with Cyp3A4. Particulars: cited from earlier work.
Data set [3] can be described thus: Letrozole plasma pharmacokinetics (UPLC-MS/MS). Format: in vivo, human. Particulars: letrozole in plasma; for Cmax / AUC(0-t) / Tmax: human, plasma, oral; for AUC(0-t): read-out: Mean AUC0-last.
For data set [4] the following is noted: human, in vivo.
The target of data set [5] is T1, aromatase (Homo sapiens, UniProt P11511).
T1 sequence (P11511 1-503): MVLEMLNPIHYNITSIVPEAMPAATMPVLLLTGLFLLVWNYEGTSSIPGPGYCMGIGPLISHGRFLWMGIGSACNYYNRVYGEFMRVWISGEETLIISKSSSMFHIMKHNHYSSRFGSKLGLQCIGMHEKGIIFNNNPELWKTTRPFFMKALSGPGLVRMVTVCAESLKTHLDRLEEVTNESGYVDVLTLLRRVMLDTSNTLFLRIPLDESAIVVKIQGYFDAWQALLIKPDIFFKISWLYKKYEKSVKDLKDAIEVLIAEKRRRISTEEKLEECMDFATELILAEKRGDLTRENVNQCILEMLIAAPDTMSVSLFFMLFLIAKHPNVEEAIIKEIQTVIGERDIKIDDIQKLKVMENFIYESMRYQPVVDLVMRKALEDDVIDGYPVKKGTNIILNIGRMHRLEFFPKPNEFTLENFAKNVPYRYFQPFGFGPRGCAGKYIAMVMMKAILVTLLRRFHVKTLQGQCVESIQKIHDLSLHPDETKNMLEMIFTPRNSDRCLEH
Put plainly: Plasma 17-B-estradiol level (clinical assay, LLD 5 pg/mL), pharmacodynamic marker of aromatase inhibition in patients. Format: in vivo. Set-up: endogenous in cells; host or cells: Tissues of the trial patients (in vivo).

Data set [6] deals with T1, aromatase. Set-up: endogenous in cells; host or cells: Tissues of the trial patients (in vivo). Particulars: cited from earlier work; for Patients with 17-B-estradiol above the LLD: randomized 3-month crossover letrozole/anastrozole.
Data set [7] relates to tumors with FGFR gene alterations. Particulars: cited from earlier work.
Data set [8] concerns FGFR. Particulars: at the RP2D; cited from earlier work.
Where [9] appears, read: level 1 (nintedanib 150 mg/bid + letrozole […]), day 1.
[10] abbreviates: level 2 (nintedanib 200 mg/bid + letrozole […]), day 1.

The term Cmax denotes the maximum level reached in the sampled fluid or tissue. The term Tmax denotes the time from dosing to the highest level. With `COC(=O)c1ccc2c(c1)NC(=O)/C2=C(\Nc1ccc(N(C)C(=O)CN2CCN(C)CC2)cc1)c1ccccc1` [nintedanib], the Cmax was 51 ng/mL in data set [1] (setting [9]); 50 ng/mL in data set [1] (level 1, day 29); 65 ng/mL in data set [1] (setting [10]); 92 ng/mL in data set [1] (level 2, day 29). The Tmax in data set [1] (level 1, day 1) worked out at 1.9 h; in data set [1] (level 1, day 29) it was 1.1 h; in data set [1] (level 2, day 1), 2 h; in data set [1] (level 2, day 29), 2 h. Besides, the AUC(0-t) in data set [1] (level 1, day 1) is 339 ng·h/mL; in data set [1] (level 1, day 29) it was 519 ng·h/mL; in data set [1] (level 2, day 1), 599 ng·h/mL; in data set [1] (level 2, day 29), 941 ng·h/mL. Further, the “BIBF1120-BS AUC on day 29 compared with day 1” value in data set [1] (in vivo) is “almost twofold higher”. Also, the “Mean plasma concentration at steady state (day 29) compared with day 1” value in data set [1] was “almost twofold higher”. The “Pharmacokinetic interaction: increase in plasma concentrations” value in data set [1] was “three- and twofold increases in their respective plasma concentrations”. The “BIBF1120-BS AUC on day 29 compared with steady-state values reported in phase I studies” value in data set [1] (versus nintedanib monotherapy [28], with pemetrexed [27], or paclitaxel plus carboplatin [47]) is “two to threefold higher”. The Metabolizing enzyme result in data set [2] (no reference given) is given as “metabolized by Cyp3A4”.

Take `N#Cc1ccc(C(c2ccc(C#N)cc2)n2cncn2)cc1` [letrozole]: the Cmax in data set [3] (Level 1 (nintedanib 150 mg/bid + letrozole […]), day 1) is 100 ng/mL; in data set [3] (Level 1, day 29), 89.4 ng/mL; in data set [3] (Level 2 (nintedanib 200 mg/bid + letrozole […]), day 1), 124 ng/mL; in data set [3] (Level 2, day 29) it was 148 ng/mL. Also, the AUC(0-t) in data set [3] (Level 1, day 1) is 2200 ng·h/mL; in data set [3] (Level 1, day 29), 2060 ng·h/mL; in data set [3] (Level 2, day 1) it was 2780 ng·h/mL; in data set [3] (Level 2, day 29) it was 3170 ng·h/mL. The Tmax was determined as 4 h in data set [3] (Level 1, day 29); 4 h in data set [3] (Level 2, day 1); 2 h in data set [3] (Level 2, day 29). For the same molecule, in data set [3] (Level 1, day 1), the “Mean Tmax” value is listed as 0 h. In data set [1], the “Pharmacokinetic interaction: increase in plasma concentrations” value is “three- and twofold increases in their respective plasma concentrations”. In addition, the “Grade 3 toxic events attributed to letrozole” value in data set [4] is reported as “No grade 3 toxic events were attributed to letrozole”. Further, in data set [2] (no reference given), the Metabolizing enzyme result was “metabolized by Cyp3A4”. The “Patients with undetectable 17-B-estradiol levels (below LLD 5 pg/mL)” value amounted to 100% in data set [5] (EOT visit, 4 weeks after ceasing nintedanib administration) and 87.5% in data set [5] (day 1 (baseline), letrozole alone […] for at least 4 weeks). In addition, the “Suppression of aromatase activity” value in data set [6] (early letrozole trials) is reported as more than 95%. Besides, in data set [6], the “Patients with 17-B-estradiol above the LLD” value is on record as 2%.

In the case of `CN1CCN(CC(=O)N(C)c2ccc(N/C(=C3\C(=O)Nc4cc(C(=O)O)ccc43)c3ccccc3)cc2)CC1` [BIBF1202-ZW], the “Mean plasma concentration at steady state (day 29) compared with day 1” value in data set [1] was “almost twofold higher”. Further, the “Mean Cmax” value was 24 ng/mL in data set [1] (setting [9]); 28 ng/mL in data set [1] (level 1, day 29); 41 ng/mL in data set [1] (setting [10]); 67 ng/mL in data set [1] (level 2, day 29). Also, the “Mean AUC0-last” value in data set [1] (level 1, day 1) stood at 200 ng·h/mL; in data set [1] (level 1, day 29), 367 ng·h/mL; in data set [1] (level 2, day 1) it was 413 ng·h/mL; in data set [1] (level 2, day 29), 824 ng·h/mL. Besides, the “Mean Tmax” value is reported as 1.9 h in data set [1] (level 1, day 1); 1.1 h in data set [1] (level 1, day 29); 3.3 h in data set [1] (level 2, day 1); 3.0 h in data set [1] (level 2, day 29).

For the molecule AZD4547, the Disease stabilization rate in data set [7] (MATCH arm W, patients with FGFR amplifications) is on record as 50%. Also, the Response rate in data set [7] (arm W of the MATCH trial) was 8%.

As for `CCN1CCN(c2ccc(Nc3cc(N(C)C(=O)Nc4c(Cl)c(OC)cc(OC)c4Cl)ncn3)cc2)CC1` [BGJ398], the “Increase in FGF23 concentrations” value in data set [8] is recorded as ~ 50%.

As for `COc1cc(OC)cc(N(CCNC(C)C)c2ccc3ncc(-c4cnn(C)c4)nc3c2)c1` [JNJ-42756493], in data set [8], the “Increase in FGF23 concentrations” value is ~ 20%.

Turning to `CC(C)(C#N)c1cc(Cn2cncn2)cc(C(C)(C)C#N)c1` [anastrozole], in data set [2], the Metabolizing enzyme entry is listed as “metabolized by Cyp3A4”. In data set [6] (n = 191), the “Patients with plasma 17-B-estradiol concentrations below the LLD” value was 83%. Besides, the “Patients with 17-B-estradiol above the LLD” value in data set [6] is recorded as 37%.

The values above are taken from PMC6534834 (Breast Cancer Research : BCR, 2019).
